The record followed here is patent EP0624584B1, “Piperazine derivatives useful as calmodulin inhibitors” (DAIICHI PHARMACEUTICAL CO., LTD., priority 1993, dated 1994).

Assay [1] deals with calmodulin-depending cyclic nucleotide phosphodiesterase (PDE). The assay is described as follows: Calmodulin (CaM) inhibitory activity: inhibition of Ca/calmodulin-dependent PDE activity. Format: biochemical. The conditions noted are these: concentration showing 50% inhibition of PDE activity potentiated by CaM; CaM and PDE from bovine brain, [3H]-cGMP, 30°C, 10 minutes. The protocol: The calmodulin inhibitory activity of a compound was evaluated by using its effect of inhibiting calmodulin-depending cyclic nucleotide phosphodiesterase (PDE) as an index. The assay for PDE inhibitory activity was carried out by the following procedure described by Thompson (Advances in Cyclic Nucleotide Research, 10, 69, 1979) with a modification. The first-stage incubation was carried out at 30°C for 10 minutes with the following reaction mixture: 50 mM Tris-HCl buffer (pH 7.5), 5 mM MgCl2, 1 mg/ml bovine serum albumin, CaM from bovine brain, [^3H]-cGMP, 1 mM CaCl2 or 1 mM EGTA, PDE from bovine brain, and a test compound in a total volume of 0.5 ml. After the incubation, the mixture was heated on a boiling water bath for 1 minute. Then, 50 µl of snake venom (1 mg/ml) was added to the reaction mixture and the whole mixture was incubated at 30°C for 10 minutes. After the incubation, 0.5 ml of AG1-X2 resin (1:1 slurry in water) was added to the mixture and centrifuged at 3000Xrpm for 20 min. The radioactivity of the supernatant solution was measured by a liquid scintillation counter. The IC50 value was determined as the concentration showing 50% inhibition of PDE activity potentiated by CaM.

Assay [2] has as its system Nitrogen-induced Hypoxia Model in Mouse. The assay is described as follows: Activity on nitrogen-induced hypoxia model in mouse. The conditions noted are these: 30 mg/kg, p.o.; 60 minutes after administration; time to respiratory standstill over that of a control group (100%). Format: in vivo. The protocol: Nine to ten mice per group were each orally given […] of a test compound. After 60 minutes from the administration, each mouse was put in a 500 mℓ-volume transparent container having a vent hole, and nitrogen gas was introduced into the container at a rate of 5000 mℓ/min. The time from the start of nitrogen introduction to respiratory standstill was measured, and a rate of increase of the time over that of a control group (100%) was obtained.

Turning to `COc1ccc(Cn2nc(CCN3CCN(c4cccc(Cl)c4C)CC3)c3cc(OC)c(OC)cc32)cc1OC` [Example 12, 3-(2-(4-(3-Chloro-2-methylphenyl)-1-piperazinyl)-ethyl)-5 6-dimethoxy-1-(3,4-dimethoxybenzyl)-1H-indazole], the IC50 in assay [1] was determined as 3.1 µM. In addition, in assay [2], the “Rate of Increase of Survival Time” value is reported as 19.2%.
As for `NCCCCCCNS(=O)(=O)c1cccc2c(Cl)cccc12` [Example W-7, reference compound], in assay [1], the concentration for half-maximal inhibition (IC50) turned out to be 33.5 µM.
For the molecule `COc1cc2c(CCN3CCN(c4cccc(Cl)c4C)CC3)nn(Cc3c[nH]cn3)c2cc1OC` [Example 15, 3-(2-(4-(3-Chloro-2-methylphenyl)-1-piperazinyl)-ethyl)-5,6-dimethoxy-1-(4-imidazolylmethyl)-1H-indazole], the IC50 in assay [1] came to 5.5 µM. For the same molecule, in assay [2], the “Rate of Increase of Survival Time” value worked out at 15.1%.

In general, IC50 refers to the concentration at which inhibition is half-maximal.
